# Experimental data taken from patent publication US12286442B2, “Methods and materials for increasing transcription factor eb polypeptide levels” (University of Pittsburgh—Of the Commonwealth System of …, priority 2019, dated 2025).
# How the values were obtained:
# BEAS-2B cells = test: Toxicity: compound concentration needed to induce greater than 50 percent of cell loss; format: cell-based, human; conditions: 18 hours incubation
# How it was run: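 Reported value is the concentration giving greater than 50 percent cell loss, grouped into bins (≥25 μM; between 1 and 25 μM; ≤1 μM as "+++"). Measured by high-content imaging of DAPI-stained BEAS-2B TFEB-EGFP cells fixed after 18 h compound exposure.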
# TFEB = test: High content screen measuring TFEB nuclear accumulation (TFEB nuclear/cytosol ratio) in BEAS-2B cells stably expressing TFEB-EGFP; format: cell-based, human; conditions: 18 hours incubation
# How it was run: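 Readout: lowest compound concentration giving a 25% rise in nuclear/cytosol TFEB-GFP ratio, from DAPI-masked nuclear and mask-expanded cytosolic signals. Cells (BEAS-2B, TFEB-EGFP stable, ~2300–2500/well) rested 8 hours, then treated 18 hours with compound serial dilutions in 2% FBS medium before PFA fixation and DAPI staining.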
Compound,toxicity (compound concentration needed to induce greater than 50 percent of cell loss) (BEAS-2B cells),efficacy (minimal compound concentration needed to increase TFEB nuclear/cytosol ratio by 25%) (TFEB)
CCc1cc(C)cc(Nc2nc(-c3ccncc3)nc3ccccc23)c1 [Compound 22],+ (cell loss of greater than 50 percent at a concentration that equals or is greater than 25 μM was represented as),+ (“+” equals >25 μM)
O=C(c1cccc(F)c1)c1nc(-c2ccncc2)nc2ccccc12 [Compound 5],+ (cell loss of greater than 50 percent at a concentration that equals or is greater than 25 μM was represented as),+ (“+” equals >25 μM)
Fc1cccc(Nc2nc(-c3ccncc3)cc3ncccc23)c1 [Compound 245],+ (cell loss of greater than 50 percent at a concentration that equals or is greater than 25 μM was represented as),+++ (“+++” equals ≤1 μM)
Fc1cccc(Nc2nc(-c3ccncc3)cc3ccccc23)c1 [Compound 43],+ (cell loss of greater than 50 percent at a concentration that equals or is greater than 25 μM was represented as),++ (“++” equals between ≤25 μM and >1 μM)
CCN1CCCC1CNc1nc(-c2ccncc2)nc2ccccc12 (centres unmarked) [Compound 176],+ (cell loss of greater than 50 percent at a concentration that equals or is greater than 25 μM was represented as),++ (“++” equals between ≤25 μM and >1 μM)
Cn1cnc2ccc(Nc3nc(-c4ccncc4)nc4ccccc34)cc21 [Compound 141],++ (cell loss of greater than 50 percent at a concentration less than 25 μM and greater than 1 μM was represented as),+++ (“+++” equals ≤1 μM)
CC(C)(C)c1nc2ccc(Nc3nc(-c4ccncc4)nc4ccccc34)cc2s1 [Compound 93],+ (cell loss of greater than 50 percent at a concentration that equals or is greater than 25 μM was represented as),+ (“+” equals >25 μM)
Fc1cccc(Cc2nc(-c3ccncc3)nc3ccccc23)c1 [Compound 7],+ (cell loss of greater than 50 percent at a concentration that equals or is greater than 25 μM was represented as),+ (“+” equals >25 μM)
CCc1nc2ccc(Nc3nc(-c4ccncc4)nc4cccc(F)c34)cc2s1 [Compound 368],+ (cell loss of greater than 50 percent at a concentration that equals or is greater than 25 μM was represented as),++ (“++” equals between ≤25 μM and >1 μM)
O=C1Cc2cc(Nc3nc(-c4ccncc4)nc4ccccc34)ccc2N1 [Compound 40],+ (cell loss of greater than 50 percent at a concentration that equals or is greater than 25 μM was represented as),++ (“++” equals between ≤25 μM and >1 μM)
COc1cc(C)cc(Nc2nc(-c3ccncc3)nc3ccccc23)c1 [Compound 20],+ (cell loss of greater than 50 percent at a concentration that equals or is greater than 25 μM was represented as),++ (“++” equals between ≤25 μM and >1 μM)
CCc1nc2ccc(Nc3nc(-c4ccncc4)nc4c(C)cccc34)cc2s1 [Compound 148],+ (cell loss of greater than 50 percent at a concentration that equals or is greater than 25 μM was represented as),+++ (“+++” equals ≤1 μM)
COc1cc(-n2c(=O)c3ccccc3n(CC(=O)Nc3ccc(C(C)C)cc3)c2=O)cc(OC)c1OC [Compound 214],+ (cell loss of greater than 50 percent at a concentration that equals or is greater than 25 μM was represented as),+ (“+” equals >25 μM)
Fc1cccc(Nc2nc(-c3cncs3)nc3ccccc23)c1 [Compound 79],+ (cell loss of greater than 50 percent at a concentration that equals or is greater than 25 μM was represented as),+ (“+” equals >25 μM)
OC(c1cccc(F)c1)c1nc(-c2ccncc2)nc2ccccc12 (centres unmarked) [Compound 6],+ (cell loss of greater than 50 percent at a concentration that equals or is greater than 25 μM was represented as),+ (“+” equals >25 μM)
Cc1cc(C)cc(Nc2nc(-c3ccncc3)nc3ccccc23)c1 [Compound 2],+ (cell loss of greater than 50 percent at a concentration that equals or is greater than 25 μM was represented as),+++ (“+++” equals ≤1 μM)
CC(C)(C)c1cc2cc(Nc3nc(-c4ccncc4)nc4ccncc34)ccc2[nH]1 [Compound 124],+ (cell loss of greater than 50 percent at a concentration that equals or is greater than 25 μM was represented as),+++ (“+++” equals ≤1 μM)
Cn1ccc2ccc(Nc3nc(-c4ccncc4)nc4ccccc34)cc21 [Compound 32],+++ (cell loss of greater than 50 percent at a concentration that equals or is less than 1 μM was represented as “+++.”),+++ (“+++” equals ≤1 μM)
c1cc(-c2nc(Nc3ccc4c(c3)OCO4)c3cnccc3n2)ccn1 [Compound 123],+ (cell loss of greater than 50 percent at a concentration that equals or is greater than 25 μM was represented as),++ (“++” equals between ≤25 μM and >1 μM)
Cc1c(Nc2nc(-c3ccncc3)nc3ncccc23)ccc2[nH]ccc12 [Compound 137],+ (cell loss of greater than 50 percent at a concentration that equals or is greater than 25 μM was represented as),+++ (“+++” equals ≤1 μM)
CNc1ccc(Nc2nc(-c3ccncc3)nc3ccccc23)cc1 [Compound 59],+ (cell loss of greater than 50 percent at a concentration that equals or is greater than 25 μM was represented as),++ (“++” equals between ≤25 μM and >1 μM)
FC(F)(F)c1nc2ccc(Nc3nc(-c4ccncc4)nc4ncccc34)cc2o1 [Compound 358],+ (cell loss of greater than 50 percent at a concentration that equals or is greater than 25 μM was represented as),++ (“++” equals between ≤25 μM and >1 μM)
